Residues, ends and D or L forms follow the SMILES beside them.

T1 sequence (Q9NZQ7 19-238): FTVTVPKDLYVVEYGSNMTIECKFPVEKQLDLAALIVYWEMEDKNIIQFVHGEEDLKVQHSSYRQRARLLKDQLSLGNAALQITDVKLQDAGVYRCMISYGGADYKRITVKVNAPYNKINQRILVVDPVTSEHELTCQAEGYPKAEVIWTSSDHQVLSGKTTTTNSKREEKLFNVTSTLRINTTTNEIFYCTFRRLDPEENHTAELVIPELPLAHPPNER

The first test addresses T1, PD-1/PD-L1 (Homo sapiens (Human), UniProt Q9NZQ7). Kind of test: PD-1/PD-L1 binding assay (Alphascreen). How it is done: Binding assays were conducted in a low volume white 384-well polystyrene plate in a final volume of 20 μL. Compounds to be analyzed were first serially diluted in DMSO and added to the plate wells before the addition of other reaction components. The final concentration of DMSO in the assay was 1%. The assay was carried out at 25° C. in the PBS buffer (pH 7.4) with 0.05% Tween-20 and 0.1% BSA. Recombinant human PD-L1 protein (19-238) with a His-tag at the C-terminus was purchased from AcroBiosystems (PD1-H5229). Recombinant human PD-1 protein (25-167) with Fc tag at the C-terminus was also from AcroBiosystems (PD1-H5257). PD-L1 and PD-1 proteins were diluted in the assay buffer (final concentration −0.67 and 0.20 nM respectively) and 10 μL was added to the plate well. Plates were centrifuged and proteins were preincubated with compounds for 40 minutes. The incubation was followed by the addition of 10 μL of assay buffer supplemented with Alphascreen Ni chelate donor beads (PerkinElmer-AS101D) and Protein A Acceptor beads (PerkinElmer-6760137) at final concentration 2.5 μg/mL under reduced light. After plate sealing, the plate was incubated in the dark at room temperature for 120 minutes before reading on a PHERAstar FS plate reader (BMG Labtech). […]
The term IC50 denotes the concentration needed to halve the response being measured. Read a high IC50 as weaker potency in that assay. `CCCC[C@H]1C(=O)N(C)CC(=O)N[C@@H](CC(=O)O)C(=O)N[C@@H](C(C)C)C(=O)N(C)[C@@H](Cc2ccccc2)C(=O)N[C@@H](Cc2ccc(O)cc2)C(=O)N(C)CC(=O)N[C@@H](Cc2c[nH]c3ccccc23)C(=O)N[C@@H](Cc2ccc(O)cc2)C(=O)N[C@@H](CC(C)C)C(=O)N[C@H](C(=O)NCC(N)=O)CSCC(=O)N[C@@H](Cc2ccccc2)C(=O)N(C)[C@@H](Cc2ccccc2)C(=O)N1C` [Cpd 27] (HELM PEPTIDE1{[O=C(C[*:3])[*:2]].F.[meF].[CCCC[C@@H](C(=O)[*:2])N(C)[*:1]].[Sar].D.V.[meF].Y.[Sar].W.Y.L.C.G.[am]}$PEPTIDE1,PEPTIDE1,1:R3-14:R3$$$V2.0): the IC50 is over 1 nM.

A further test addresses T1, PD-1/PD-L1. Kind of test: PD-1/PD-L1 binding assay (HTRF). The method in brief: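 HTRF read-out (665/620 nm) after 60 min at 25 °C with 1 nM Eu anti-human IgG and 20 nM APC anti-His. Beforehand, inhibitors were preincubated 40 min with Fc-PD-1 (25-167, […] as listed) and His-PD-L1 (19-238, 10 nM) in PBS pH 7.4 with Tween-20, BSA, 1% DMSO; IC50 from log-concentration curve.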
(TR-FRET usually uses a lanthanide donor and a delayed reading to cut background.)
In turn, `Cc1c(NC(=O)c2nc3c(n2C)CCN(C2CCOCC2)C3)cccc1-c1cccc(NC(=O)c2nc3c(n2C)CCN(CC[C@H]2CC[C@H](C(=O)O)CC2)C3)c1Cl` [Example 122, trans-4-(2-(2-((2-chloro-2′-methyl-3′-(1-methyl-5-(tetrahydro-2H-pyran-4-yl)-4,5,6,7-tetrahydro-1H-imidazo[4,5-c]pyridine-2-carboxamido)-[1,1′-biphenyl]-3-yl)carbamoyl)-1-methyl-1,4,6,7-tetrahydro-5H-imidazo[4,5-c]pyridin-5-yl)ethyl)cyclohexane-1-carboxylic acid] came in with an IC50 of at most 10 nM. On to `Cc1c(NC(=O)c2nc3c(n2C)CCN(C2CCOCC2)C3)cccc1-c1cccc(NC(=O)c2nc3c(n2C)CCN(C[C@H]2CC[C@H](C(=O)O)CC2)C3)c1Cl` [Example 123, trans-4-((2-((2-chloro-2′-methyl-3′-(1-methyl-5-(tetrahydro-2H-pyran-4-yl)-4,5,6,7-tetrahydro-1H-imidazo[4,5-c]pyridine-2-carboxamido)-[1,1′-biphenyl]-3-yl)carbamoyl)-1-methyl-1,4,6,7-tetrahydro-5H-imidazo[4,5-c]pyridin-5-yl)methyl)cyclohexane-1-carboxylic acid], for which the IC50 is at most 10 nM. `Cc1c(NC(=O)c2nc3c(n2C)CCN(C2CCOCC2)C3)cccc1-c1cccc(NC(=O)c2nc3c(n2C)CCN(CCc2ccc(C(=O)O)cc2)C3)c1Cl` [Example 124, 4-(2-(2-((2-chloro-2′-methyl-3′-(1-methyl-5-(tetrahydro-2H-pyran-4-yl)-4,5,6,7-tetrahydro-1H-imidazo[4,5-c]pyridine-2-carboxamido)-[1,1′-biphenyl]-3-yl)carbamoyl)-1-methyl-1,4,6,7-tetrahydro-5H-imidazo[4,5-c]pyridin-5-yl)ethyl)benzoic acid]: the IC50 was at most 10 nM. On the same count and under the same terms, the result for `Cc1c(NC(=O)c2nc3c(n2C)CCN(C2CCOCC2)C3)cccc1-c1cccc(NC(=O)c2nc3c(n2C)CCN(C2CCC(C(=O)O)CC2)C3)c1Cl` (stereo not drawn) [Example 125, 4-(2-((2-chloro-2′-methyl-3′-(1-methyl-5-(tetrahydro-2H-pyran-4-yl)-4,5,6,7-tetrahydro-1H-imidazo[4,5-c]pyridine-2-carboxamido)-[1,1′-biphenyl]-3-yl)carbamoyl)-1-methyl-1,4,6,7-tetrahydro-5H-imidazo[4,5-c]pyridin-5-yl)cyclohexane-1-carboxylic acid] reads at most 10 nM; that for `Cc1c(NC(=O)c2nc3c(n2C)CCNC3)cccc1-c1cccc(NC(=O)c2nc3c(n2C)CCN(CC[C@H]2CC[C@H](C(=O)O)CC2)C3)c1Cl` [Example 126, trans-4-(2-(2-((2-chloro-2′-methyl-3′-(1-methyl-4,5,6,7-tetrahydro-1H-imidazo[4,5-c]pyridine-2-carboxamido)-[1,1′-biphenyl]-3-yl)carbamoyl)-1-methyl-1,4,6,7-tetrahydro-5H-imidazo[4,5-c]pyridin-5-yl)ethyl)cyclohexane-1-carboxylic acid], at most 10 nM; that for `CCN1CCc2c(nc(C(=O)Nc3cccc(-c4cccc(NC(=O)c5nc6c(n5C)CCN(CC[C@H]5CC[C@H](C(=O)O)CC5)C6)c4Cl)c3C)n2C)C1` [Example 127, trans-4-(2-(2-((2-chloro-3′-(5-ethyl-1-methyl-4,5,6,7-tetrahydro-1H-imidazo[4,5-c]pyridine-2-carboxamido)-2′-methyl-[1,1′-biphenyl]-3-yl)carbamoyl)-1-methyl-1,4,6,7-tetrahydro-5H-imidazo[4,5-c]pyridin-5-yl)ethyl)cyclohexane-1-carboxylic acid], at most 10 nM. The same measure, in the same setting: with `Cc1c(NC(=O)c2nc3c(n2C)CCN(CC2CC2)C3)cccc1-c1cccc(NC(=O)c2nc3c(n2C)CCN(CC[C@H]2CC[C@H](C(=O)O)CC2)C3)c1Cl` [Example 128, trans-4-(2-(2-((2-chloro-3′-(5-(cyclopropylmethyl)-1-methyl-4,5,6,7-tetrahydro-1H-imidazo[4,5-c]pyridine-2-carboxamido)-2′-methyl-[1,1′-biphenyl]-3-yl)carbamoyl)-1-methyl-1,4,6,7-tetrahydro-5H-imidazo[4,5-c]pyridin-5-yl)ethyl)cyclohexane-1-carboxylic acid] the figure was at most 10 nM; with `Cc1c(NC(=O)c2nc3c(n2C)CCN(C(C)C)C3)cccc1-c1cccc(NC(=O)c2nc3c(n2C)CCN(CC[C@H]2CC[C@H](C(=O)O)CC2)C3)c1Cl` [Example 129, trans-4-(2-(2-((2-chloro-3′-(5-isopropyl-1-methyl-4,5,6,7-tetrahydro-1H-imidazo[4,5-c]pyridine-2-carboxamido)-2′-methyl-[1,1′-biphenyl]-3-yl)carbamoyl)-1-methyl-1,4,6,7-tetrahydro-5H-imidazo[4,5-c]pyridin-5-yl)ethyl)cyclohexane-1-carboxylic acid], at most 10 nM; with `Cc1c(NC(=O)c2nc3c(n2C)CCN(C2CCCC2)C3)cccc1-c1cccc(NC(=O)c2nc3c(n2C)CCN(CC[C@H]2CC[C@H](C(=O)O)CC2)C3)c1Cl` [Example 130, trans-4-(2-(2-((2-chloro-3′-(5-cyclopentyl-1-methyl-4,5,6,7-tetrahydro-1H-imidazo[4,5-c]pyridine-2-carboxamido)-2′-methyl-[1,1′-biphenyl]-3-yl)carbamoyl)-1-methyl-1,4,6,7-tetrahydro-5H-imidazo[4,5-c]pyridin-5-yl)ethyl)cyclohexane-1-carboxylic acid], at most 10 nM. The same measure, in the same setting: the result for `Cc1c(NC(=O)c2nc3c(n2C)CCN(C2CCCCC2)C3)cccc1-c1cccc(NC(=O)c2nc3c(n2C)CCN(CC[C@H]2CC[C@H](C(=O)O)CC2)C3)c1Cl` [Example 131, trans-4-(2-(2-((2-chloro-3′-(5-cyclohexyl-1-methyl-4,5,6,7-tetrahydro-1H-imidazo[4,5-c]pyridine-2-carboxamido)-2′-methyl-[1,1′-biphenyl]-3-yl)carbamoyl)-1-methyl-1,4,6,7-tetrahydro-5H-imidazo[4,5-c]pyridin-5-yl)ethyl)cyclohexane-1-carboxylic acid] reads at most 10 nM.

`Cc1c(NC(=O)c2nc3c(n2C)CCN(CCO)C3)cccc1-c1cccc(NC(=O)c2nc3c(n2C)CCN(CC[C@H]2CC[C@H](C(=O)O)CC2)C3)c1Cl` [Example 132, trans-4-(2-(2-((2-chloro-3′-(5-(2-hydroxyethyl)-1-methyl-4,5,6,7-tetrahydro-1H-imidazo[4,5-c]pyridine-2-carboxamido)-2′-methyl-[1,1′-biphenyl]-3-yl)carbamoyl)-1-methyl-1,4,6,7-tetrahydro-5H-imidazo[4,5-c]pyridin-5-yl)ethyl)cyclohexane-1-carboxylic acid] gave an IC50 of at most 10 nM. On the same count and under the same terms, the result for `Cc1c(NC(=O)c2nc3c(n2C)CCN(C2CCOCC2)C3)cccc1-c1cccc(NC(=O)c2nc3c(n2C)CCN(C[C@H]2CC[C@@H](C(=O)O)CC2)C3)c1Cl` [Example 136, cis-4-((2-((2-chloro-2′-methyl-3′-(1-methyl-5-(tetrahydro-2H-pyran-4-yl)-4,5,6,7-tetrahydro-1H-imidazo[4,5-c]pyridine-2-carboxamido)-[1,1′-biphenyl]-3-yl)carbamoyl)-1-methyl-1,4,6,7-tetrahydro-5H-imidazo[4,5-c]pyridin-5-yl)methyl)cyclohexane-1-carboxylic Acid] reads at most 10 nM; that for `C[C@H](O)CN1CCc2c(nc(C(=O)Nc3cccc(-c4cccc(NC(=O)c5nc6c(n5C)CCN(CC57CCC(C(=O)O)(CC5)C7)C6)c4Cl)c3Cl)n2C)C1` [Example 181, (S)-4-((2-(2,2′-dichloro-3′-(5-(2-hydroxypropyl)-1-methyl-4,5,6,7-tetrahydro-1H-imidazo[4,5-c]pyridine-2-carboxamido)biphenyl-3-ylcarbamoyl)-1-methyl-6,7-dihydro-1H-imidazo[4,5-c]pyridin-5(4H)-yl)methyl)bicyclo[2.2.1]heptane-1-carboxylic acid], at most 10 nM; that for `C[C@@H](O)CN1CCc2c(nc(C(=O)Nc3cccc(-c4cccc(NC(=O)c5nc6c(n5C)CCN(CC57CCC(C(=O)O)(CC5)C7)C6)c4Cl)c3Cl)n2C)C1` [Example 182, (R)-4-((2-(2,2′-dichloro-3′-(5-(2-hydroxypropyl)-1-methyl-4,5,6,7-tetrahydro-1H-imidazo[4,5-c]pyridine-2-carboxamido)biphenyl-3-ylcarbamoyl)-1-methyl-6,7-dihydro-1H-imidazo[4,5-c]pyridin-5(4H)-yl)methyl)bicyclo[2.2.1]heptane-1-carboxylic acid], at most 10 nM.

These data come from patent US10806785B2, “Immunomodulator compounds and methods of use” (Incyte Corporation, priority 2016, dated 2020).
